Reference: patent publication US20220204512A1, “SUBSTITUTED FUSED BICYCLIC DERIVATIVE, PREPARATION METHOD THEREFOR, AND APPLICATION THEREOF IN MEDICINES” (Jiangsu Hengrui Medicine Co., Ltd., priority 2019, published 2022)

What was measured:
ERK2 = target: T1, ERK2 (Homo sapiens, UniProt P28482); assay: ERK2 enzyme activity test (ADP-Glo Kinase Assay); format: biochemical; settings: ADP-Glo chemiluminescence
T1 construct: purchased R&D 1879-KS-010
Protocol: The purpose of this experiment is to detect the inhibitory ability of the compounds of the present disclosure on the ERK2 enzyme activity, and to evaluate the in vitro activity of the compounds based on the IC50. The ADP-Glo™ Kinase Assay Kit was used in this experiment. The substrate was phosphorylated under the action of the enzyme and ADP was produced at the same time. The ADP-Glo reagent was added to remove the unreacted ATP in the reaction system, and the ADP produced by the reaction was detected with kinase detection reagent. In the presence of the compound, the inhibition rate of the compound was calculated by measuring the signal value.
Preparation of enzyme and substrate: ERK2 (1879-KS-010, R&D) and substrate (custom peptide, Gill Biochemical) were prepared to 0.75 ng/ml and 1500 μM in a buffer (40 mM Tris, 20 mM MgCl2, 0.1 mg/ml BSA, 50 μM DTT), and then the enzyme solution and the substrate solution were prepared into a mixed solution at a volume ratio of 2:1 for later use. ATP was diluted to 500 μM with buffer. The compound was dissolved in DMSO (dimethyl sulfoxide, Shanghai Titan Scientific Co., Ltd.) to prepare a stock solution with an initial concentration of 20 mM, and then Bravo was used to prepare the compound. Finally, 3 μL of a mixed solution of enzyme and substrate, and 1 μL substrate of different concentrations of the compound (the initial concentration is 50 μM, 4-fold dilution) were added to each well of the 384-well plate, and the plate was incubated at 30° C. for 10 minutes, and finally 1 μL 500 μM ATP solution was added to each well, and the plate was incubated at 30° C. for 2 hours. Then 5 μL of ADP-Glo was added, and the plate was incubated at 30° C. for 40 minutes. Then 10 μL of kinase detection buffer was added, and the plate was incubated at 30° C. for 40 minutes. The 384-well plate was taken out and placed in a microplate reader (BMG labtech, PHERAstar FS), and the chemiluminescence was measured by a microplate reader.
Microsoft Excel, Graphpad Prism 5 was used to process and analyze the data.

[1] = Pharmacokinetics assay in mice; format: in vivo; settings: female, mouse, po, C57 mice, intragastric, 2 mg/kg, plasma
Protocol: Mice were used as test animals. The drug concentration in plasma at different time points was determined by LC/MS/MS method after administration of the compounds 1-P2, 2-P2, 4-P2, 6-P2, 9-P2, 10-P2 and 11-P2. The pharmacokinetic behavior of the compounds of the present disclosure was studied and evaluated in mice.
Sixty-three C57 mice (female, equally divided into seven groups) were purchased from Shanghai Jiesijie Laboratory Animal Co., LTD. (Certificate No.: SCXK(Shanghai)2013-0006).
A certain amount of the test compound was weighed, dissolved in 5% of DMSO by volume and 5% of tween 80, followed by the additon of 90% of normal saline to prepare a 0.1 mg/mL colorless, clear and transparent solution.
After an overnight fast, C57 mice were intragastrically administered the test compound at an administration dose of 2 mg/kg and an administration volume of 0.2 ml/10 g.
The mice were intragastrically administered the test compounds. 0.1 ml of blood was taken before the administration and at 0.25, 0.5, 1.0, 2.0, 4.0, 6.0, 8.0, 11.0 and 24.0 hours after the administration. The samples were stored in heparinized tubes, and centrifuged for 10 minutes at 3500 rpm to separate the blood plasma. The plasma samples were stored at −20° C.
The content of the test compound in the plasma of mice after intragastrical administration of the test compound at different concentrations was determined: 25 μL of […] plasma at each time point after the administration was taken, followed by the addition of 50 μL of the internal standard camptothecin solution (100ng/mL) and 200 μL of acetonitrile. The resulting solution was vortex-mixed for 5 minutes, and centrifuged for 10 minutes (4000 rpm). 4 μL of the supernatant was taken from the plasma samples for LC/MS/MS analysis.

T1 sequence (P28482 2-360 limits assumed): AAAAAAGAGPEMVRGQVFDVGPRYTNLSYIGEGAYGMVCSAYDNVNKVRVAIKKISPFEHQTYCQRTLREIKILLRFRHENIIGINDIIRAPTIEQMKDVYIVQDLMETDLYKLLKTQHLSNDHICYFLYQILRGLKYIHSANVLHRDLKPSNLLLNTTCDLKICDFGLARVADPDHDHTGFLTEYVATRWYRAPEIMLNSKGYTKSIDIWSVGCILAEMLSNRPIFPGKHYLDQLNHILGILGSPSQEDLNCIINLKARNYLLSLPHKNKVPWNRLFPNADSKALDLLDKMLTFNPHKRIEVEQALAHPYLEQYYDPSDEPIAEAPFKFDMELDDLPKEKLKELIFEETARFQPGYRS

IC50 (ERK2) | SMILES | other results
819 nM | COc1cc(F)cc([C@@H](CO)NC(=O)[C@H](C)N2CCn3cc(-c4nc(NC5CCOCC5)ncc4Cl)cc3C2=O)c1 [Example 4-P1, (S)-2-(7-(5-Chloro-2-((tetrahydro-2H-pyran-4-yl)amino)pyrimidin-4-yl)-1-oxo-3,4-dihydropyrrolo[1,2-a]pyrazin-2(1H)-yl)-N-((S)-1-(3-fluoro-5-methoxyphenyl)-2-hydroxyethyl)propanamide] | 
4.9 nM | COc1cc(F)cc([C@@H](CO)NC(=O)[C@@H](C)N2CCn3cc(-c4nc(N[C@@H](C)CO)ncc4Cl)nc3C2=O)c1 [Example 14-P2, (R)-2-(2-(5-Chloro-2-(((S)-1-hydroxypropan-2-yl)amino)pyrimidin-4-yl)-8-oxo-5,6-dihydroimidazo[1,2-a]pyrazin-7(8H)-yl)-N-((S)-1-(3-fluoro-5-methoxyphenyl)-2-hydroxyethyl)propanamide] | 
26 nM | COc1cc(F)cc([C@@H](CO)NC(=O)[C@@H](C)N2Cc3cc(-c4nc(Nc5ccnn5C)ncc4C)cn3C2=O)c1 [Example 8-P2, (R)-N-((S)-1-(3-Fluoro-5-methoxyphenyl)-2-hydroxyethyl)-2-(6-(5-methyl-2-((1-methyl-1H-pyrazol-5-yl)amino)pyrimidin-4-yl)-3-oxo-1H-pyrrolo[1,2-c]imidazol-2(3H)-yl)propanamide] | 
5.5 nM | Cc1cccc([C@@H](CO)NC(=O)[C@@H](C)N2CCn3cc(-c4ccnc(Nc5ccnn5C)n4)cc3C2=O)c1 [Example 18-P2, (R)-N-((S)-2-Hydroxy-1-(m-tolyl)ethyl)-2-(7-(2-((1-methyl-1H-pyrazol-5-yl)amino)pyrimidin-4-yl)-1-oxo-3,4-dihydropyrrolo[1,2-a]pyrazin-2(1H)-yl)propanamide] | 
3.6 nM | Cc1cccc([C@@H](CO)NC(=O)C(C)N2CCn3cc(-c4nc(NC5CCOCC5)ncc4Cl)nc3C2=O)c1 (stereo partly drawn) [Example 5, 2-(2-(5-Chloro-2-((tetrahydro-2H-pyran-4-yl)amino)pyrimidin-4-yl)-8-oxo-5,6-dihydroimidazo[1,2-a]pyrazin-7(8H)-yl)-N-((S)-2-hydroxy-1-(m-tolyl)ethyl)propanamide] | 
75 nM | Cc1cccc([C@@H](CO)NC(=O)[C@H](C)N2CCc3cc(-c4nc(NC5CCOCC5)ncc4Cl)cn3C2=O)c1 [Example 11-P1, (S)-2-(6-(5-Chloro-2-((tetrahydro-2H-pyran-4-yl)amino)pyrimidin-4-yl)-1-oxo-3,4-dihydropyrrolo[1,2-c]pyrimidin-2(1H)-yl)-N-((S)-2-hydroxy-1-(m-tolyl)ethyl)propanamide] | 
336 nM | COc1cc(F)cc([C@@H](CO)NC(=O)[C@H](C)N2CCc3cc(-c4nc(NC5CCOCC5)ncc4Cl)cn3C2=O)c1 [Example 2-P1, (S)-2-(6-(5-Chloro-2-((tetrahydro-2H-pyran-4-yl)amino)pyrimidin-4-yl)-1-oxo-3,4-dihydropyrrolo[1,2-c]pyrimidin-2(1H)-yl)-N-((S)-1-(3-fluoro-5-methoxyphenyl)-2-hydroxyethyl)propanamide] | 
7.5 nM | COc1cc(F)cc([C@@H](CO)NC(=O)[C@@H](C)N2Cc3cc(-c4nc(NC5CCOCC5)ncc4Cl)cn3C2=O)c1 [Example 6-P2, (R)-2-(6-(5-Chloro-2-((tetrahydro-2H-pyran-4-yl)amino)pyrimidin-4-yl)-3-oxo-1H-pyrrolo[1,2-c]imidazol-2(3H)-yl)-N-((S)-1-(3-fluoro-5-methoxyphenyl)-2-hydroxyethyl)propanamide] | Vd/F ([1]; read-out: Apparent distribution volume Vz/F): 7.74 L/kg; AUC ([1]; read-out: Area under curve AUC): 1740 ng·h/mL; CL/F ([1]; read-out: Clearance CLz/F): 18.9 mL/min/kg; half-life ([1]; read-out: Half-life T1/2 (converted)): 4.74 h; Cmax ([1]; read-out: Plasma concentration Cmax): 1310 ng/mL; MRT ([1]; read-out: Residence time MRT): 1.39 h
1530 nM | COc1cc(F)cc([C@@H](CO)NC(=O)[C@H](C)N2CCn3cc(-c4nc(N[C@@H](C)CO)ncc4Cl)nc3C2=O)c1 [Example 14-P1, (S)-2-(2-(5-Chloro-2-(((S)-1-hydroxypropan-2-yl)amino)pyrimidin-4-yl)-8-oxo-5,6-dihydroimidazo[1,2-a]pyrazin-7(8H)-yl)-N-((S)-1-(3-fluoro-5-methoxyphenyl)-2-hydroxyethyl)propanamide] | 
2120 nM | COc1cc(F)cc([C@@H](CO)NC(=O)[C@H](C)N2Cc3cc(-c4nc(Nc5ccnn5C)ncc4C)cn3C2=O)c1 [Example 8-P1, (S)-N-((S)-1-(3-Fluoro-5-methoxyphenyl)-2-hydroxyethyl)-2-(6-(5-methyl-2-((1-methyl-1H-pyrazol-5-yl)amino)pyrimidin-4-yl)-3-oxo-1H-pyrrolo[1,2-c]imidazol-2(3H)-yl)propanamide] | 
811 nM | COc1cc(F)cc([C@@H](CO)NC(=O)[C@H](C)N2CCc3cc(-c4nc(Nc5ccnn5C)ncc4C)cn3C2=O)c1 [Example 1-P1, (S)-N-((S)-1-(3-Fluoro-5-methoxyphenyl)-2-hydroxyethyl)-2-(6-(5-methyl-2-((1-methyl-1H-pyrazol-5-yl)amino)pyrimidin-4-yl)-1-oxo-3,4-dihydropyrrolo[1,2-c]pyrimidin-2(1H)-yl)propanamide] | 
2540 nM | COc1cc(F)cc([C@@H](CO)NC(=O)[C@H](C)N2Cc3cc(-c4nc(NC5CCOCC5)ncc4Cl)cn3C2=O)c1 [Example 6-P1, (S)-2-(6-(5-Chloro-2-((tetrahydro-2H-pyran-4-yl)amino)pyrimidin-4-yl)-3-oxo-1H-pyrrolo[1,2-c]imidazol-2(3H)-yl)-N-((S)-1-(3-fluoro-5-methoxyphenyl)-2-hydroxyethyl)propanamide] | 
948 nM | COc1cc(F)cc([C@@H](CO)NC(=O)[C@H](C)N2CCn3cc(-c4nc(Nc5ccnn5C)ncc4C)cc3C2=O)c1 [Example 12-P1, (S)-N-((S)-1-(3-Fluoro-5-methoxyphenyl)-2-hydroxyethyl)-2-(7-(5-methyl-2-((1-methyl-1H-pyrazol-5-yl)amino)pyrimidin-4-yl)-1-oxo-3,4-dihydropyrrolo[1,2-a]pyrazin-2(1H)-yl)propanamide] | 
28.7 nM | COc1cc(F)cc([C@@H](CO)NC(=O)[C@@H](C)N2CCn3cc(-c4nc(N[C@@H](C)CO)ncc4Cl)cc3C2=O)c1 [Example 15, (R)-2-(7-(5-Chloro-2-(((S)-1-hydroxypropan-2-yl)amino)pyrimidin-4-yl)-1-oxo-3,4-dihydropyrrolo[1,2-a]pyrazin-2(1H)-yl)-N-((S)-1-(3-fluoro-5-methoxyphenyl)-2-hydroxyethyl)propanamide] | 
